Experimental data reported in patent US8367647B2, “Treatment of meconium aspiration syndrome with estrogens” (Pantarhei Bioscience B.V., priority 2007, dated 2013).

Tested on: newborn piglets
Experiment: Meconium aspiration model: newborn piglets given human meconium by deep intratracheal instillation, monitored 7 days
Format: in vivo
Conditions: 3 ml/kg of 20% human meconium intratracheal, daily oral dosage of 0.7 mg/kg started within one hour after birth, versus placebo
Description: Immediately after birth, twelve newborn piglets are given 3 ml/kg of a 20% solution of human meconium by deep intratracheal instillation. Next, the piglets are randomly assigned to two groups of each six animals. Within one hour after birth, one group is treated with a daily oral dosage of 0.7 mg/kg estetrol whilst the control group is treated with placebo. During the next 7 days the condition of the piglets belonging to both groups are monitored. […] Example 1 was repeated, except that this time one group was treated with a daily oral dosage of 30 μg/kg estradiol instead of estetrol.

With C[C@]12CC[C@@H]3c4ccc(O)cc4CC[C@H]3[C@@H]1[C@@H](O)[C@@H](O)[C@@H]2O [estetrol] the “incidence of severe complications of MAS versus control group” value was “substantially lower”.
